The experiment addresses T1, rα1β1εδ nAChR (UniProt P20782+P25108+P25109+P25110).
T1 construct: expressed in transfected cells; host or cells: Xenopus laevis oocytes injected with cRNA
Briefly: cell-based. Set-up: species or system rodent: rat (α1, β1, and δ), mouse (ε).

T1 sequence (P20782 21-493): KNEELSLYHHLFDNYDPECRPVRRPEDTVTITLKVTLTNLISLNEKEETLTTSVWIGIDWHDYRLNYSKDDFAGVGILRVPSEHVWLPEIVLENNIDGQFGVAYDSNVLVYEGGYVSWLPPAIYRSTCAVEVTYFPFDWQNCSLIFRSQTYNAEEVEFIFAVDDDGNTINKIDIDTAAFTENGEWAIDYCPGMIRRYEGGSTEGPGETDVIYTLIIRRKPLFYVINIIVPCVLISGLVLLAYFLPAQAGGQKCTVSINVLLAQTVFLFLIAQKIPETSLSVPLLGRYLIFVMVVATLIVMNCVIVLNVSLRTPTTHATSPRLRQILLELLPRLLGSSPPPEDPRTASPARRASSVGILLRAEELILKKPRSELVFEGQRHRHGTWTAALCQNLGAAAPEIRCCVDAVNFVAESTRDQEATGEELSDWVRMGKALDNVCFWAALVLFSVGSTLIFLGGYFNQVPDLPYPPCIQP
T1 sequence (P25108 21-457): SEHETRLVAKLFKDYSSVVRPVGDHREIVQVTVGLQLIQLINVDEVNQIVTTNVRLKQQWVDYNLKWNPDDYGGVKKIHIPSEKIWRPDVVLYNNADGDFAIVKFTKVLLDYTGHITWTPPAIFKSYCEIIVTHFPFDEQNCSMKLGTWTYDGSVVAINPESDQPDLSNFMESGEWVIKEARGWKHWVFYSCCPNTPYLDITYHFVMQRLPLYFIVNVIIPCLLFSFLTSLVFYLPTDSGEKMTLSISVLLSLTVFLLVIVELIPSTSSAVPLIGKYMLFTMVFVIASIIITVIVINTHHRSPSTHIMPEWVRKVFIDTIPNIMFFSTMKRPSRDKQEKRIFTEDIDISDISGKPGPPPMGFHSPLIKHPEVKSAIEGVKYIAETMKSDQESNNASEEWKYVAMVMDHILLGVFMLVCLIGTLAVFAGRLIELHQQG
T1 sequence (P25109 24-501): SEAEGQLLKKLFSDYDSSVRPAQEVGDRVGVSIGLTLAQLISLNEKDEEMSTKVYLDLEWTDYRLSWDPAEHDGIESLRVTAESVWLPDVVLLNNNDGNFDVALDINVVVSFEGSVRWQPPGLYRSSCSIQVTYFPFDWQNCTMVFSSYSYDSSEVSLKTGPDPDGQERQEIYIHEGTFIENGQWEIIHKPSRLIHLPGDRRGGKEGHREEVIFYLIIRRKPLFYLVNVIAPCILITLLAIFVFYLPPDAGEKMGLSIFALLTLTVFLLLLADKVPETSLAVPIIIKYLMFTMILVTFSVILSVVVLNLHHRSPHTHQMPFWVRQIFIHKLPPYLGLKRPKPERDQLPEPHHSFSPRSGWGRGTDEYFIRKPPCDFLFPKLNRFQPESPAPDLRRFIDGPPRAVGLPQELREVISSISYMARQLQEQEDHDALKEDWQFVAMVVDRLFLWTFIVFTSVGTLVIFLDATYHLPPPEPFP
T1 sequence (P25110 22-517): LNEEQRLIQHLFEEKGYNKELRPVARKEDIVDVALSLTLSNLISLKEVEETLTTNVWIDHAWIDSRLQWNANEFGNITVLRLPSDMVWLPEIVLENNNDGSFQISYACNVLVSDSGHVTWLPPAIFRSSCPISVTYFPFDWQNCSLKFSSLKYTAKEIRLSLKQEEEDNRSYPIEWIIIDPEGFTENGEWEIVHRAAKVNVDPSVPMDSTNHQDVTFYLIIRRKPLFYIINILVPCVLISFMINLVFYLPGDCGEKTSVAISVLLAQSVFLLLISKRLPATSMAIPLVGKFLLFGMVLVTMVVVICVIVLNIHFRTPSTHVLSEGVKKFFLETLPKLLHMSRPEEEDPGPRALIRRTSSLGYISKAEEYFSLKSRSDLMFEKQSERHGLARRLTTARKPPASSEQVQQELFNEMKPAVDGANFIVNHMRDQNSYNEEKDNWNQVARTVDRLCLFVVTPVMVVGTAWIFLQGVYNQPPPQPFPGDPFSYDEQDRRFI

As for `CSCC[C@H](NC(=O)[C@H](CC(C)C)NC(=O)[C@H](C)N)C(=O)N[C@@H](CO)C(=O)N[C@H](C(=O)NCC(=O)N[C@H](C(=O)N[C@@H](CC(N)=O)C(=O)N[C@@H](Cc1ccc(O)cc1)C(=O)N[C@@H](CCCNC(=N)N)C(=O)N[C@@H](CC(C)C)C(=O)N[C@@H](CC(C)C)C(=O)N[C@@H](CCCCN)C(=O)N[C@H](C(=O)N[C@@H](CSCC(N)=O)C(=O)N[C@@H](CCCNC(=N)N)C(=O)NCC(=O)N[C@@H](CO)C(=O)NCC(=O)N[C@@H](CCCNC(=N)N)C(=O)N[C@@H](Cc1ccc(O)cc1)C(=O)N[C@@H](CSCC(N)=O)C(=O)N[C@@H](CCCNC(=N)N)C(=O)N[C@@H](CO)C(=O)N1CCC[C@H]1C(=O)N[C@@H](Cc1ccc(O)cc1)C(=O)O)[C@@H](C)O)[C@@H](C)O)[C@@H](C)O` [GeXXVIIA-L-Nter], the half-inhibitory concentration (IC50) – broadly, the point on the concentration scale where inhibition reaches its midpoint – was found to be 2190 ± 240 nM and the “IC50 relative to GeXXVIIA-L, rα1β1εδ nAChR” value is reported as “about three-fold higher than GeXXVIIA-L”.

The values are drawn from PMC5484120 (Marine Drugs, 2017).
